This passage reports ED50 results from US8106042B2 (priority 2008, dated 2012).

The assay addresses α7-subtype of nicotinic receptors (Mus musculus, UniProt P49582). The assay is described as follows: in vivo. Also noted: species or system mice. The settings on record: read-out: Inhibition of 3H-α-Bungarotoxine Binding EC50.

Sequence of α7-subtype of nicotinic receptors (P49582 23-502): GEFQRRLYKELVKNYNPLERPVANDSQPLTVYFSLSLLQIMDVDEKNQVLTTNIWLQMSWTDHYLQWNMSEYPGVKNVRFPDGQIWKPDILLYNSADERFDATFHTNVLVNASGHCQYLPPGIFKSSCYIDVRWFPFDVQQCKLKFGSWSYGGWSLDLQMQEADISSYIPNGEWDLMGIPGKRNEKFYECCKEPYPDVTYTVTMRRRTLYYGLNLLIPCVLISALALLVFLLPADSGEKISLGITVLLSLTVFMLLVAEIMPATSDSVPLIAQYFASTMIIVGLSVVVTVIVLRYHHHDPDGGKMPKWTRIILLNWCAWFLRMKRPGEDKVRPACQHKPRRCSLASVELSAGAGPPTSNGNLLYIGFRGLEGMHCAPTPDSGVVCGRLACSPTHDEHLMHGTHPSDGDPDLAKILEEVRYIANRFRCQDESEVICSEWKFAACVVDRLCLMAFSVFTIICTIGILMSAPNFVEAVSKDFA

On to `[O-][N+]12CCC(CC1)N(c1nnc(-c3ccc4c(c3)OCO4)o1)CC2` [Compound 1, 4-(5-Benzo[1,3]-dioxol-5-yl-[1,3,4]oxadiazol-2-yl)-1,4-diazabicyclo[3.2.2]-nonane-1-oxide], for which the ED50 is 1.5 mg/kg.
